Results as given in ChEMBL document CHEMBL5236594, “Novel α7 nicotinic acetylcholine receptor modulators as potential antitussive agents” (Bioorg Med Chem Lett, 2023).
Activity calls are given as the source filed them. The rule behind the calls is not given here.

Key:
[1] = target: Neuronal acetylcholine receptor; alpha3/beta4 (Homo sapiens, UniProt P30926+P32297); experiment: Binding affinity to alpha3beta4 nAChR (unknown origin) assessed as dissociation constant; type: protein-complex assay
[2] = target: Neuronal acetylcholine receptor; alpha4/beta2 (Homo sapiens, UniProt P17787+P43681); experiment: Binding affinity to alpha4beta2 nAChR (unknown origin) assessed as dissociation constant; type: protein-complex assay
[3] = target: Neuronal acetylcholine receptor subunit alpha-7 (Homo sapiens, UniProt P36544); experiment: Binding affinity to alpha7 nAChR (unknown origin) assessed as dissociation constant
Cavia porcellus [4] = experiment: Anti-tussive activity in guniea pig cough model assessed as reduction in cumulative number of coughs at 3 to 30 mg/kg, ip; type: functional, organism-based; details: dose 3-30 mg/kg
Cavia porcellus [5] = experiment: Anti-tussive activity in guniea pig cough model assessed as suppression of cough frequency at 3 to 30 mg/kg, ip; type: functional, organism-based; details: dose 3-30 mg/kg
Cavia porcellus [6] = experiment: Anti-tussive activity in guniea pig cough model assessed as reduction in cumulative number of coughs at 1 to 9.5 mg/kg, ip; type: functional, organism-based; details: dose 1-9.5 mg/kg
Cavia porcellus [7] = experiment: Anti-tussive activity in guniea pig cough model assessed as reduction in cumulative number of coughs at 9.5 mg/kg, po; type: functional, organism-based
Cavia porcellus [8] = experiment: Anti-tussive activity in guniea pig cough model assessed as reduction in cough inhibition period at 1 to 9.5 mg/kg, ip; type: functional, organism-based; details: dose 1-9.5 mg/kg
[9] = Half life in po dosed guinea pig; type: ADME, organism-based, Cavia porcellus; details: in vivo
[10] = Half life in INSULFFLATION dosed guinea pig; type: ADME, organism-based, Cavia porcellus; details: in vivo, inhaled or intranasal
Cavia porcellus [11] = experiment: Anti-tussive activity in guniea pig cough model assessed as reduction in cumulative number of coughs at 0.4 mg/kg, INH; type: functional, organism-based
Cavia porcellus [12] = experiment: Anti-tussive activity in guniea pig cough model assessed as reduction in cumulative number of coughs at 1 to 2 mg/kg, IT; type: functional, organism-based; details: dose 1-2 mg/kg
Cavia porcellus [13] = experiment: Anti-tussive activity in guniea pig cough model assessed as suppression of cough frequency at 1 to 9.5 mg/kg, ip; type: functional, organism-based; details: dose 1-9.5 mg/kg
[14] = Half life in ip dosed guinea pig; type: ADME, organism-based, Cavia porcellus; details: in vivo
Cavia porcellus [15] = experiment: Anti-tussive activity in guniea pig cough model assessed as reduction in cough inhibition period at 0.1 to 0.4 mg/kg, INH; type: functional, organism-based; details: dose 0.1-0.4 mg/kg
Cavia porcellus [16] = experiment: Anti-tussive activity in citric acid-induced guniea pig cough model assessed as reduction in cough count at 30 mg/kg, ip; type: functional, organism-based
Cavia porcellus [17] = experiment: Anti-tussive activity in guniea pig cough model assessed as reduction in cumulative number of coughs at 30 mg/kg, ip; type: functional, organism-based

Sequence of Neuronal acetylcholine receptor; alpha4/beta2 (P17787 whole entry): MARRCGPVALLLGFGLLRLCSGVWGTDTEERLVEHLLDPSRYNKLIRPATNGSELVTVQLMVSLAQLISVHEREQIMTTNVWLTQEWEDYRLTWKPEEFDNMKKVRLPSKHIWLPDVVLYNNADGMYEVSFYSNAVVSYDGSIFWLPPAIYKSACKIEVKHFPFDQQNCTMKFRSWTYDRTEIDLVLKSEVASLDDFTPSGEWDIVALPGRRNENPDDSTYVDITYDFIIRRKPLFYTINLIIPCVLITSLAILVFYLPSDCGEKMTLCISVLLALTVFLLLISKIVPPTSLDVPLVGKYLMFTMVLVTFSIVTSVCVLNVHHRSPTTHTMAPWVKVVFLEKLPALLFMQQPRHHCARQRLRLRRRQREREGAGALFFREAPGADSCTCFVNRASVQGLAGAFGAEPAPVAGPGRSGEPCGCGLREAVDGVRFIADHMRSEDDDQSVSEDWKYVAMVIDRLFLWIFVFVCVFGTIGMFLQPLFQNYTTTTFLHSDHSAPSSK
Sequence of Neuronal acetylcholine receptor; alpha4/beta2 (P43681 whole entry): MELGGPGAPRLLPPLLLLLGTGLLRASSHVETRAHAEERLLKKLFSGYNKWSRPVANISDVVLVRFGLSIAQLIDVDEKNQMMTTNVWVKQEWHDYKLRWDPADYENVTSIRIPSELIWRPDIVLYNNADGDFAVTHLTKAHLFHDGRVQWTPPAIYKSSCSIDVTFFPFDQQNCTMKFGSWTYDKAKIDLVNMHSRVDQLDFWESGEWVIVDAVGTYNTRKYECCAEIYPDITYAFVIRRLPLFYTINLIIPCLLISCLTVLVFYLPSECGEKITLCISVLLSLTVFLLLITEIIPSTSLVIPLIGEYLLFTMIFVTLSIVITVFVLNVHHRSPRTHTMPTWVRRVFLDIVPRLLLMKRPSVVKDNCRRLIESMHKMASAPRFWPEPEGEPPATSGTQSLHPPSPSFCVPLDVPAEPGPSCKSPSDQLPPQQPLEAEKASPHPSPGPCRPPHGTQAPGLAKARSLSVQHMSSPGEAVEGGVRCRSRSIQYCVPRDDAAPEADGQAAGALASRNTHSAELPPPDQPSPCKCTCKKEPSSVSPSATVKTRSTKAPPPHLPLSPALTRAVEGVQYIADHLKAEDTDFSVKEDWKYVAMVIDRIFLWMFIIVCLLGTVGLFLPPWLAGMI
Sequence of Neuronal acetylcholine receptor subunit alpha-7 (P36544 whole entry): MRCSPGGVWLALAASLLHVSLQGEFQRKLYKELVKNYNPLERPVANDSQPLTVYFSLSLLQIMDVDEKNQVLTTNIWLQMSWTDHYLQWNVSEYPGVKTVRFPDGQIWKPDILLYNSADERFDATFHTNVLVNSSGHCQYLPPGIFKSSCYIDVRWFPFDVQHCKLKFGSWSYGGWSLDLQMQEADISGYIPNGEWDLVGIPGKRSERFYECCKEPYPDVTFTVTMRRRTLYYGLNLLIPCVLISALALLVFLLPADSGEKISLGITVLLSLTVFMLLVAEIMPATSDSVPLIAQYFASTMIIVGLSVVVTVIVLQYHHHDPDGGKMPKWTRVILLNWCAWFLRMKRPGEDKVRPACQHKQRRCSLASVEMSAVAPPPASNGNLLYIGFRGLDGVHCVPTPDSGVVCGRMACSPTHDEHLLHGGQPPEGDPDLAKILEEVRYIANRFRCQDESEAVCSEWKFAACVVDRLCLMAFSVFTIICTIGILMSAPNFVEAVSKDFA
Sequence of Neuronal acetylcholine receptor; alpha3/beta4 (P30926 whole entry): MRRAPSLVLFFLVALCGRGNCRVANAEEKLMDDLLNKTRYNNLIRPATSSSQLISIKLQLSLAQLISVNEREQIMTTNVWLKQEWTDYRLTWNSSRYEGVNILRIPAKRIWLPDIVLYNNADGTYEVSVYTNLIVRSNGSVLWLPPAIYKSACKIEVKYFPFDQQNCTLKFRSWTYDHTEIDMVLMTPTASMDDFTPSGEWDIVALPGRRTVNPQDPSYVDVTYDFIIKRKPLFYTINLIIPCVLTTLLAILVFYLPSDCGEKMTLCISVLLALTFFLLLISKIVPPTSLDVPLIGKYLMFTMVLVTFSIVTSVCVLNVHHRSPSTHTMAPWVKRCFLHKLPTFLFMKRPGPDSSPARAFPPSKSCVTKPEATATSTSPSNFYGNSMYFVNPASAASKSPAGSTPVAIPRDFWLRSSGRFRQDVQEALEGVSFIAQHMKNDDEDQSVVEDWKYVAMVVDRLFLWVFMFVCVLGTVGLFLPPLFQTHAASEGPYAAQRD
Sequence of Neuronal acetylcholine receptor; alpha3/beta4 (P32297 whole entry): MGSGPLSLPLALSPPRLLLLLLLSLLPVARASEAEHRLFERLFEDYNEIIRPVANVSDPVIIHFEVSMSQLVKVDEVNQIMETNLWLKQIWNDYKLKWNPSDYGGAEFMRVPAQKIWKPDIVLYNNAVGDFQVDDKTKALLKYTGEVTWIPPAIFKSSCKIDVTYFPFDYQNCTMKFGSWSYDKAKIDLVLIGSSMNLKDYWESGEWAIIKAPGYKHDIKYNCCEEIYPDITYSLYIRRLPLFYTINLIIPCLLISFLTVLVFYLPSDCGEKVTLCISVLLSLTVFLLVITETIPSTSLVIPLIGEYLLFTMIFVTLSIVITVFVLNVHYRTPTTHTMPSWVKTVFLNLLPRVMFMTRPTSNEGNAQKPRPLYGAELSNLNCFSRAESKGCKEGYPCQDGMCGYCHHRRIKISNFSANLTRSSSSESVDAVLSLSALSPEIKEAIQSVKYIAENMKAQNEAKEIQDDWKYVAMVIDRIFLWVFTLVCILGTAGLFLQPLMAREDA

| SMILES | Ki [1] [nM] | Ki [2] [nM] | Ki [3] [nM] | other results |
| --- | --- | --- | --- | --- |
| c1cncc(C[C@@H]2[C@@H](Oc3cc4ccccc4cn3)C3CCN2CC3)c1 (relative stereo) | 2150 | 1870 | 1000 | – |
| c1ccc(-c2nnc(O[C@H]3C4CCN(CC4)[C@@H]3Cc3cccnc3)s2)cc1 (relative stereo) | 340 | 330 | – | – |
| c1cncc(C[C@@H]2[C@H](Oc3ccc(-c4ccc5[nH]ccc5c4)nn3)C3CCN2CC3)c1 (relative stereo) | 200 | 17.3 | – | – |
| c1cncc(C[C@@H]2[C@@H](Oc3ccc(-c4ccc[nH]4)nn3)C3CCN2CC3)c1 (relative stereo) | 730 | 200 | 42 | Activity (Cavia porcellus [4]): inactive; Activity (Cavia porcellus [5]): Active |
| c1cncc(C[C@@H]2[C@@H](Oc3nnc(-c4ccc5[nH]ccc5c4)s3)C3CCN2CC3)c1 (relative stereo) | 440 | 220 | – | Activity (Cavia porcellus [6]): Active; Activity (Cavia porcellus [7]): inactive; Activity (Cavia porcellus [8]): Active; half-life [9]: 1.5 h; half-life [10]: 3.2 h; Activity (Cavia porcellus [11]): Active; Activity (Cavia porcellus [12]): Active; Activity (Cavia porcellus [13]): Active; half-life [14]: 1.7 h; Activity (Cavia porcellus [15]): Active |
| c1ccc(-c2ccc(O[C@@H]3C4CCN(CC4)[C@H]3Cc3cccnc3)nn2)cc1 (relative stereo) | 80 | 120 | 100 | – |
| c1cncc(C[C@@H]2[C@@H](Oc3ccc4ccccc4n3)C3CCN2CC3)c1 (relative stereo) | 800 | 140 | – | – |
| c1cncc(C[C@H]2[C@H](Oc3ccc(-c4ccc5[nH]ccc5c4)nn3)C3CCN2CC3)c1 (relative stereo) | 730 | 73 | 1.4 | Activity (Cavia porcellus [16]): Active |
| c1cncc(C[C@H]2[C@H](Oc3cnc(-c4ccc5[nH]ccc5c4)cn3)C3CCN2CC3)c1 (relative stereo) | 400 | 230 | 240 | – |
| Nc1nc2ccc(-c3ccc(O[C@H]4C5CCN(CC5)[C@@H]4Cc4cccnc4)nn3)cc2s1 (relative stereo) | 1080 | 50 | 18.8 | – |
| COc1ccc2c3c1O[C@H]1[C@@H](O)C=C[C@H]4[C@@H](C2)N(C)CC[C@@]341 | – | – | – | Activity (Cavia porcellus [17]): Active |
| c1cncc(C[C@H]2[C@H](Oc3ccc(-c4ccc5[nH]ccc5c4)cn3)C3CCN2CC3)c1 | 780 | 470 | 58 | – |
